Assay results as given in patent US9493396B2, “Substituted naphthalene compounds as calcium sensing receptor modulators” (LUPIN ATLANTIS HOLDINGS SA, priority 2013, dated 2016).
Where a name gives a salt, the structure may show the parent alone.

The molecules below were run against T1, Calcium sensing receptor (hCaSR) (Homo sapiens, UniProt P41180) (assay: In-vitro assay of calcimimetics through modulation of calcium sensing receptor (intracellular calcium increase, FLIPR)). Settings: stably transfected HEK293 cells expressing hCaSR; Fluo4NW dye; 0.3 mM CaCl2; 8-point assay; read-out: EC50 in range.
T1 construct: expressed in transfected cells; host or cells: HEK293 (stably transfected)
T1 sequence (P41180 20-1078): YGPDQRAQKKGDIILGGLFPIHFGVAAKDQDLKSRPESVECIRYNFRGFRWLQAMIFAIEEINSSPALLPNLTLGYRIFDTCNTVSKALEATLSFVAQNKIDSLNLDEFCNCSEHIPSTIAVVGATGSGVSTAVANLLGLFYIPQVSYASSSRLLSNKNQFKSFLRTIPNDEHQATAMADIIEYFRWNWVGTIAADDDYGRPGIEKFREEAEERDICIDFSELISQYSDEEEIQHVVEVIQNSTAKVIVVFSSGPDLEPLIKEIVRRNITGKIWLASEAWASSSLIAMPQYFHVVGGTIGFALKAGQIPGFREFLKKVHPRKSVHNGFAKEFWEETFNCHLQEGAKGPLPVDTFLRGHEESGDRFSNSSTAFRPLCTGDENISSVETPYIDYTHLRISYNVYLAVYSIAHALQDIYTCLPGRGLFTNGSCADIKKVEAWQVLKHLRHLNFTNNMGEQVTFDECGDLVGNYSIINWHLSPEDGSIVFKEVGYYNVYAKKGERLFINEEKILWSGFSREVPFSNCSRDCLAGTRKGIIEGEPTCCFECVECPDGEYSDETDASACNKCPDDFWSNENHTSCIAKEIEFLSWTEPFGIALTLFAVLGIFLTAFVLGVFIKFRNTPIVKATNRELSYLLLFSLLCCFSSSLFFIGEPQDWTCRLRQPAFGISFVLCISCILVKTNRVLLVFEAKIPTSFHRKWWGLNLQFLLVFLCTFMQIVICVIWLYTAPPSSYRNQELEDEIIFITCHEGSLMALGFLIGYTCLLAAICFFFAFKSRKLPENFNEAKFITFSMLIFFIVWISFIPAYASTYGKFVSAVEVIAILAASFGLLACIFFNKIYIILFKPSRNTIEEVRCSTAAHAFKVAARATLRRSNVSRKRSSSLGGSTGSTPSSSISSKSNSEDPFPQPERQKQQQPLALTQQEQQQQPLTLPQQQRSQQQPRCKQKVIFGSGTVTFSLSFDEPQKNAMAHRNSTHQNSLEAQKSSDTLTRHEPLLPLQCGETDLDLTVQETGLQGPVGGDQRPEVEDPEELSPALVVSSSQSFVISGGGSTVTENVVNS
Format: cell-based
Experimental: In-Vitro Assay Method of Calcimimetics Through Modulation of Calcium Sensing Receptor (CaSR): The ability of the compounds to modulate Calcium sensing receptor is determined by measuring an increase in intracellular calcium [Ca^2+]i. Stably transfected HEK293 cells expressing hCaSR_pTriEx-3 hygro vector are developed. Cells are grown overnight on a 96-well plate to 80% confluency in Ham's F12 containing 20% FBS at 37° C., 5% CO2. Subsequently, cells are washed extensively with 20 mM HEPES buffer containing 126 mM […], 1 mM MgCl2 and 4 mM KCl to remove serum components that might interfere with the assay. Cells are loaded with calcium sensing Fluo4NW dye in HEPES base buffer containing 0.1% BSA and 1 mg/ml glucose for 30 minutes to measure changes in intracellular calcium. The activities of the compounds are measured in FLIPR using 0.3 mM CaCl2 in 20 mM HEPES base buffer. The effectiveness of the compound to modulate receptor activity is determined by calculating the EC50 responses for that compound in an 8-point assay and plotted using GraphPad Prism 5.

| EC50 [nM] | SMILES |
| --- | --- |
| < 20 | CCOc1cccc([C@@H](C)NC(C)c2cc(-c3cc(F)cc(CCC(=O)O)c3)c3ccccc3c2)c1 (stereo partly drawn) [Example 158, 3-(3-(3-(1-(((R)-1-(3-Ethoxyphenyl)ethyl)amino)ethyl)naphthalen-1-yl)-5-fluorophenyl) propanoic acid hydrochloride] |
| < 20 | COc1cccc([C@@H](C)NC(C)c2cc(-c3ccc(F)c(C(=O)O)c3)c3ccccc3c2)c1 (stereo partly drawn) [Example 123, 2-Fluoro-5-(3-(1-(((R)-1-(3-methoxyphenyl)ethyl)amino)ethyl)naphthalen-1-yl)benzoic acid hydrochloride] |
| < 20 | CCOc1cccc([C@@H](C)NC(C)c2cc(-c3ccc(F)c(CCC(=O)O)c3)c3ccccc3c2)c1 (stereo partly drawn) [Example 142, 3-(5-(3-(1-(((R)-1-(3-Ethoxyphenyl)ethyl)amino)ethyl)naphthalen-1-yl)-2-fluorophenyl) propanoic acid hydrochloride] |
| 50 to 400 | CCC(N[C@H](C)c1cccc(Cl)c1)c1cc(-c2ccc(F)c(CCC(=O)O)c2)c2ccccc2c1 (stereo partly drawn) [Example 152, 3-(5-(3-(1-(((R)-1-(3-Chlorophenyl)ethyl)amino)propyl)naphthalen-1-yl)-2-fluorophenyl)propanoic acid hydrochloride] |
| 50 to 400 | COc1cccc([C@@H](C)NCc2cc(-c3ccc(OC)c(C(=O)O)c3)c3ccccc3c2)c1 [Example 104, (R)-2-Methoxy-5-(3-(((1-(3-methoxyphenyl)ethyl)amino)methyl)naphthalen-1-yl)benzoic acid hydrochloride] |
| 50 to 400 | CCC(N[C@H](C)c1cccc(OC)c1)c1cc(-c2cc(F)cc(CCC(=O)O)c2)c2ccccc2c1 (stereo partly drawn) [Example 148, 3-(3-Fluoro-5-(3-(1-(((R)-1-(3-methoxyphenyl)ethyl)amino)propyl)naphthalen-1-yl)phenyl)propanoic acid hydrochloride] |
| 50 to 400 | COc1cccc([C@@H](C)NCc2cc(-c3ccc(C(C)C)c(C(=O)O)c3)c3ccccc3c2)c1 [Example 105, (R)-2-Isopropyl-5-(3-(((1-(3-methoxyphenyl)ethyl)amino)methyl)naphthalen-1-yl)benzoic acid hydrochloride] |
| < 20 | CCOc1cccc([C@@H](C)NCc2cc(-c3ccc(F)c(C(=O)O)c3)c3ccccc3c2)c1 [Example 98, hydrochloride] |
| < 20 | CC(N[C@H](C)c1cccc(Cl)c1)c1cc(-c2ccc(C3(F)COC3)cc2)c2ccccc2c1 (mixture of isomers) [Example 23, (1R)-1-(3-chlorophenyl)-N-(1-(4-(4-(3-fluorooxetan-3-yl)phenyl)naphthalen-2-yl)ethyl)ethanamine hydrochloride] |
| < 20 | COc1cccc([C@@H](C)NC(C)c2cc(-c3ccc(C(F)(F)F)cc3)c3ccc(F)cc3c2)c1 (stereo partly drawn) [Example 162, (1R)-1-(3-methoxyphenyl)-N-(1-(7-fluoro-4-(4-(trifluoromethyl)phenyl)naphthalen-2-yl)ethyl)ethanamine hydrochloride] |
| < 20 | C[C@@H](NCc1cc(-c2ccc(C(F)(F)F)cc2)c2ccccc2c1)c1cccc2ccccc12 [Example 1, (R)-1-(Naphthalen-1-yl)-N-((4-(4-(trifluoromethyl)phenyl)naphthalen-2-yl)methyl)ethanamine hydrochloride] |
| 20 to 50 | CCOc1cccc([C@@H](C)NCc2cc(-c3ccc(Cl)c(C(=O)O)c3)c3ccccc3c2)c1 [Example 100, (R)-2-Chloro-5-(3-(((1-(3-ethoxyphenyl)ethyl)amino)methyl)naphthalen-1-yl)benzoic acid hydrochloride] |
| < 20 | COc1cccc([C@@H](C)NC(C)c2cc(-c3cc(F)cc(CCC(=O)O)c3)c3ccccc3c2)c1 (stereo partly drawn) [Example 134, 3-(3-Fluoro-5-(3-(1-(((R)-1-(3-methoxyphenyl)ethyl)amino)ethyl)naphthalen-1-yl)phenyl)propanoic acid hydrochloride] |
